Results published in ChEMBL document CHEMBL3046898, “Synthesis and characterization of flurbiprofen hydrazide derivatives as potential anti-HCV, anticancer and antimicrobial agents” (2013).
Calls of active or inactive are those of the source. No cut-off for these calls is given here.

Key:
Micrococcus lylae [1] = assay: Antibacterial activity against Micrococcus lylae at 6.25 to 200 ug/ml after 24 hrs by microwell dilution method; type: functional, organism-based
[2] = test system: Schwanniomyces occidentalis; assay: Antifungal activity against Schwanniomyces occidentalis at 10 mg/ml after 48 hrs by disc diffusion method; type: functional, organism-based
Candida albicans = assay: Antifungal activity against Candida albicans at 10 mg/ml after 48 hrs by disc diffusion method; type: functional, organism-based
Aspergillus = assay: Antifungal activity against Aspergillus at 10 mg/ml after 72 hrs by disc diffusion method; type: functional, organism-based
Escherichia coli [3] = assay: Antibacterial activity against Escherichia coli at 10 mg/ml after 24 hrs by disc diffusion method; type: functional, organism-based
Pseudomonas aeruginosa [4] = assay: Antibacterial activity against Pseudomonas aeruginosa at 6.25 to 200 ug/ml after 24 hrs by microwell dilution method; type: functional, organism-based
Escherichia coli [5] = assay: Antibacterial activity against Escherichia coli at 6.25 to 200 ug/ml after 24 hrs by microwell dilution method; type: functional, organism-based
Staphylococcus aureus [6] = assay: Antibacterial activity against Staphylococcus aureus at 10 mg/ml after 24 hrs by disc diffusion method; type: functional
Nakaseomyces glabratus = assay: Antifungal activity against Candida glabrata at 10 mg/ml after 48 hrs by disc diffusion method; type: functional, organism-based
Kluyveromyces marxianus = assay: Antifungal activity against Kluyveromyces marxianus at 10 mg/ml after 48 hrs by disc diffusion method; type: functional, organism-based
Hepacivirus hominis = assay: Inhibition of HCV N-terminal His-tagged NS5B RNA dependent RNA polymerase expressed in Escherichia coli DH5alpha using poly rA/U12 as primer at 200 uM after 60 mins by liquid scintillation counting
Klebsiella aerogenes [7] = assay: Antibacterial activity against Enterobacter aerogenes at 10 mg/ml after 24 hrs by disc diffusion method; type: functional, organism-based
[8] = test system: Acinetobacter radioresistens; assay: Antibacterial activity against Acinetobacter radioresistens at 6.25 to 200 ug/ml after 24 hrs by microwell dilution method; type: functional, organism-based
Salmonella paratyphi [9] = assay: Antibacterial activity against Salmonella paratyphi at 10 mg/ml after 24 hrs by disc diffusion method; type: functional, organism-based; conditions: Salmonella enterica subsp. enterica serovar Paratyphi A
Micrococcus luteus [10] = assay: Antibacterial activity against Micrococcus luteus at 6.25 to 200 ug/ml after 24 hrs by microwell dilution method; type: functional, organism-based
Proteus vulgaris [11] = assay: Antibacterial activity against Proteus vulgaris at 6.25 to 200 ug/ml after 24 hrs by microwell dilution method; type: functional, organism-based
Klebsiella aerogenes [12] = assay: Antibacterial activity against Enterobacter aerogenes at 6.25 to 200 ug/ml after 24 hrs by microwell dilution method; type: functional, organism-based
Salmonella paratyphi [13] = assay: Antibacterial activity against Salmonella paratyphi at 6.25 to 200 ug/ml after 24 hrs by microwell dilution method; type: functional, organism-based; conditions: Salmonella enterica subsp. enterica serovar Paratyphi A
Staphylococcus cohnii [14] = assay: Antibacterial activity against Staphylococcus cohnii at 6.25 to 200 ug/ml after 24 hrs by microwell dilution assay; type: functional, organism-based
Staphylococcus cohnii [15] = assay: Antibacterial activity against Staphylococcus cohnii at 10 mg/ml after 24 hrs by disc diffusion method; type: functional
Proteus vulgaris [16] = assay: Antibacterial activity against Proteus vulgaris at 10 mg/ml after 24 hrs by disc diffusion method; type: functional, organism-based
Micrococcus lylae [17] = assay: Antibacterial activity against Micrococcus lylae at 10 mg/ml after 24 hrs by disc diffusion method; type: functional, organism-based
Pichia membranifaciens = assay: Antifungal activity against Pichia membranifaciens at 10 mg/ml after 48 hrs by disc diffusion method; type: functional, organism-based
Candida tropicalis = assay: Antifungal activity against Candida tropicalis at 10 mg/ml after 48 hrs by disc diffusion method; type: functional, organism-based
Photorhabdus luminescens [18] = assay: Antibacterial activity against Photorhabdus luminescens at 10 mg/ml after 24 hrs by disc diffusion method; type: functional, organism-based
Pseudomonas aeruginosa [19] = assay: Antibacterial activity against Pseudomonas aeruginosa at 10 mg/ml after 24 hrs by disc diffusion method; type: functional, organism-based
Candida parapsilosis = assay: Antifungal activity against Candida parapsilosis at 10 mg/ml after 48 hrs by disc diffusion method; type: functional, organism-based
Micrococcus luteus [20] = assay: Antibacterial activity against Micrococcus luteus at 10 mg/ml after 24 hrs by disc diffusion method; type: functional, organism-based
[21] = test system: Acinetobacter radioresistens; assay: Antibacterial activity against Acinetobacter radioresistens at 10 mg/ml after 24 hrs by disc diffusion method; type: functional, organism-based
Staphylococcus aureus [22] = assay: Antibacterial activity against Staphylococcus aureus at 6.25 to 200 ug/ml after 24 hrs by microwell dilution assay; type: functional, organism-based
Photorhabdus luminescens [23] = assay: Antibacterial activity against Photorhabdus luminescens at 6.25 to 200 ug/ml after 24 hrs by microwell dilution method; type: functional, organism-based

Compound	Activity (Micrococcus lylae [1])	Activity [2]	Activity (Candida albicans)	Activity (Aspergillus)	Activity (Escherichia coli [3])	Activity (Pseudomonas aeruginosa [4])	Activity (Escherichia coli [5])	Activity (Staphylococcus aureus [6])	Activity (Nakaseomyces glabratus)	Activity (Kluyveromyces marxianus)	inhibition (Hepacivirus hominis)	Activity (Klebsiella aerogenes [7])	Activity [8]	Activity (Salmonella paratyphi [9])	Activity (Micrococcus luteus [10])	Activity (Proteus vulgaris [11])	Activity (Klebsiella aerogenes [12])	Activity (Salmonella paratyphi [13])	Activity (Staphylococcus cohnii [14])	Activity (Staphylococcus cohnii [15])	further results
CC(C(=O)N/N=C/c1ccc(C(F)(F)F)cc1)c1ccc(-c2ccccc2)c(F)c1 (configuration not stated)	inactive	inactive	inactive	inactive	inactive	inactive	inactive	inactive	inactive	inactive	8%	inactive	inactive	inactive	inactive	inactive	inactive	inactive	inactive	inactive	Activity (Proteus vulgaris [16]): inactive; Activity (Micrococcus lylae [17]): inactive; Activity (Pichia membranifaciens): inactive; Activity (Candida tropicalis): inactive; Activity (Photorhabdus luminescens [18]): inactive; Activity (Pseudomonas aeruginosa [19]): inactive; Activity (Candida parapsilosis): inactive; Activity (Micrococcus luteus [20]): inactive; Activity [21]: inactive; Activity (Staphylococcus aureus [22]): inactive; Activity (Photorhabdus luminescens [23]): inactive
CC(C(=O)NNC(=S)Nc1ccccc1)c1ccc(-c2ccccc2)c(F)c1 (configuration not stated)	inactive	inactive	inactive	inactive	inactive	inactive	inactive	inactive	inactive	inactive	8%	inactive	inactive	inactive	inactive	inactive	inactive	inactive	inactive	inactive	Activity (Proteus vulgaris [16]): inactive; Activity (Micrococcus lylae [17]): inactive; Activity (Pichia membranifaciens): inactive; Activity (Candida tropicalis): inactive; Activity (Photorhabdus luminescens [18]): inactive; Activity (Pseudomonas aeruginosa [19]): inactive; Activity (Candida parapsilosis): inactive; Activity (Micrococcus luteus [20]): inactive; Activity [21]: inactive; Activity (Staphylococcus aureus [22]): inactive; Activity (Photorhabdus luminescens [23]): inactive
